Seven compounds from paper PMC11272598, “RG7774 (Vicasinabin), an orally bioavailable cannabinoid receptor 2 (CB2R) agonist, decreases retinal vascular permeability, leukocyte adhesion, and ocular inflammation in animal models” (Frontiers in Pharmacology, 2024) can be followed below.

Assay [1] addresses Mouse CB1R (Mus musculus, UniProt P47746). In words: Mouse cAMP assay in N18TG2 cells. Further details: inhibition at 0.1 µM: reference not given here. Format: cell-based. To be noted: N18TG2, read-out: Mean ± SEM % inhibition of control, Mouse CB1R (cAMP assay). On the procedure:
The effect of RG7774 on the forskolin-stimulated accumulation of cAMP was determined using the LANCE ULTRAcAMP kit (PerkinElmer Life Sciences, MA, USA), according to the manufacturer’s instructions. Briefly, N18TG2 cells preincubated for 30 min with 1-methyl-3-isobutylxanthine (1 mM) were added to 0.5 µM forskolin preincubated with or without RG7774 for 15 min. Reactions were incubated for 30 min at 37°C and Time-resolved fluorescence was measured using a Victor V Multilabel counter (PerkinElmer Life Sciences). Data were transformed into cAMP concentrations using a standard curve.

Assay [2] relates to Mouse DAGL. The experiment in a line: Mouse DAGL assay (brain). In kind it is biochemical. To be noted: positive control 10 µM. On the procedure: (§1) Mouse brain or human HaCaT cells (CLS Cell Lines Service, GmbH, Eppelheim, Germany) were homogenized in 50 mM Tris-HCl (pH 7.4) using a glass potter, and homogenates were centrifuged at 4°C sequentially at 800 g (10 min) and 10,000 g (30 min). The final pellet (80–200 µg) was resuspended in 50 mM Tris-HCl (pH 7.4) containing 10 mM CaCl2 and incubated at 37°C for 30 min with sn-1[^14C]-stearoyl-2-arachidonoyl-glycerol (100 µM) (ARC, MO, USA). Reactions were stopped by adding chloroform/methanol (2:1, v/v), and the organic phase was dried and fractionated by thin-layer chromatography on silica gel, as previously reported. Levels of 1[^14C]-stearoyl acid radioactivity were determined by cutting the appropriate band from the gel and analyzing using a β-scintillation counter. Mouse cells were preincubated for 15 min with RG7774 (10 µM) and added to the incubation medium. Human cells were preincubated for 15 min with 8 different concentrations of RG7774 (0.1-500 µM) and added to the incubation medium. Control experiments were carried out in the presence of the selective DAGL inhibitor, D053 (10 µM).

The subject of assay [3] is Human DAGL. In words: Human DAGL assay (HaCaT cells). Format: biochemical. To be noted: positive control 10 µM. How it is done:
as §1

The target in assay [4] is T1, Human MAGL (Homo sapiens, UniProt Q99685).
T1 construct: Mouse brain or human U937 cell extracts (ATCC, Manassas, VI, USA); host or cells: U937 cells, 100,000 g supernatant
In words: Human MAGL assay (U937 cell extracts). Format: biochemical. To be noted: positive control 100 nM. On the procedure: The final supernatant was incubated with [^3H]-2-OG (10 µM) (ARC, MO, USA) at 37°C for 30 min as previously described, and reactions were stopped with a 2:1 (v/v) mixture of chloroform/methanol. [^3H]-glycerol release in the aqueous phase was measured by scintillation counting. […] Human supernatant (100 µg) was preincubated for 15 min at RT with 8 different concentrations of RG7774 (0.1-500 µM) in the incubation medium.

In assay [5] the target is T2, Human 5-LOX (Homo sapiens, UniProt P09917).
T2 construct: purchased Cayman Chemical Company #60402
The experiment in a line: Human 5-LOX assay. To be noted: positive control 100 µM. Format: biochemical. How it is done:
(§2) The inhibitory effects of different concentrations of RG7774 (0.1-500 µM) on the activities of human recombinant 5-LOX (Cayman Chemical Company #60402), 15-LOX (Cayman Chemical Company #10011263), and human platelet-derived 12-LOX were determined using the Biovision Lipoxygenase Activity Assay Kit (#BVN-K978-100). This kit converts the LOX substrate to an intermediate that reacted with the probe, generating a fluorescent product. The effect of RG7774 (preincubated for 15 min) at 10 µM on LOXs (5-LOX: 0.5 or 1.2 µg; 12-LOX: 20 µg; 15-LOX: 0.23 or 0.3 µg) was ascertained by adding the compounds directly to the incubation medium and the fluorescent signal, recorded at excitation/emission 500/536 nm at 30 sec intervals for 30-40 min, was directly proportional to LOX activity. […] The percentage of human 5-, 12-, and 15-LOX activity (control) was estimated from the amount of oxidized probe in the reaction using a standard curve.

Assay [6] addresses T3, Human 12-LOX (Homo sapiens, UniProt P18054).
T3 construct: human platelet-derived 12-LOX; from tissue; host or cells: human platelets
In words: Human 12-LOX assay. In kind it is biochemical. To be noted: positive control 100 µM. How it is done: as §2

For assay [7], the system named is Human EMT. In words: Human EMT activity (HaCaT cells). In kind it is cell-based. To be noted: positive control 40 µM. On the procedure:
HaCaT cells were seeded (350,000–400,000 cell/well) in triplicate in 12-well plates and incubated for 15 min in PBS at 37°C with [^3H]-N-arachidonoylethanolamine ([^3H]-AEA) (400 nM) (ARC, MO, USA), as previously reported. Experiments were repeated at 4°C in order to subtract passive diffusion from EMT-mediated uptake. RG7774 (10 µM) was preincubated with labeled HaCaT cells for 15 min before adding directly to the incubation medium (PBS). The selective EMT inhibitor, OMDM-1 (40 µM), was used as positive control.

Assay [8] deals with T4, Human FAAH (Homo sapiens, UniProt O00519).
T4 construct: purchased Cayman Chemical Company
In words: Human FAAH assay. To be noted: positive control 100 nM; read-out: Mean ± SEM % inhibition of control, Human FAAH. Format: biochemical. On the procedure:
(§3) Mouse brain was homogenized in 50 mM Tris-HCl (pH 7.4) using a glass potter, centrifuged at 1000 g for 10 min, and the pellet was discarded. The supernatant (50 µg) was incubated with [^14C]-AEA (10 µM) (ARC, MO, USA) at 37°C for 15 min (Tris-HCl, pH 9.0) and reactions were stopped with a 2:1 (v/v) mixture of chloroform/methanol. [^14C]-ethanolamine release in the aqueous phase was measured as previously reported. Mouse supernatants (50 µg) were preincubated with RG7774 (10 µM) for 15 min and added directly to the incubation medium. Purified human FAAH (1.7 µg; Cayman Chemical Company, MI, USA) was incubated with [^14C]-AEA (10 µM) (ARC, MO, USA) at 37°C for 15 min (pH 9.0), as previously described. […] for 15 min with 8 different concentrations of RG7774 (0.1-500 µM) and added directly to the incubation medium (250 µL). Control experiments was carried out in the presence of the FAAH inhibitor, URB-597 (100 nM).

In assay [9] the target is T5, Mouse FAAH (Mus musculus, UniProt O08914).
T5 construct: Mouse brain was homogenized in 50 mM Tris-HCl (pH 7.4); from tissue; host or cells: mouse brain, 1000 g supernatant
In words: Mouse FAAH assay (brain). In kind it is biochemical. To be noted: positive control 100 nM; read-out: Mean ± SEM % inhibition of control, Mouse FAAH. How it is done:
as §3

The subject of assay [10] is Jurkat cells. The experiment in a line: xCELLigence impedance assay in Jurkat cells. Format: cell-based, human. To be noted: co-treatment with RG7774. On the procedure: Background impedance was determined in 96-well RTCA E-plates (Agilent Technologies, Santa Clara, CA, United States) coated with 150 μg/mL fibronectin/H2O (Sigma-Aldrich, St. Louis, MO, United States) and containing 50 μL RPMI 1640 assay medium (Fisher Scientific, Schwerte, Germany) 31870) with 10% fetal calf serum (FCS). Jurkat cells (200,000 cells per well) were seeded in 100 μL of growth medium, allowed to settle for 30 min at RT, and cultured overnight at 37°C and 5% CO2. Dose-response curves were generated by adding increasing concentrations of RG7774 to seeded Jurkat cells and performing impedance measurements (xCelligence RTCA M, Agilent Technologies, Santa Clara, CA, United States) at baseline and 1 h after treatment. Displacement experiments were performed by incubating seeded Jurkat cells with 10 μM SR144528, a CB2R-selective antagonist (Tocris Bioscience, Bristol, United Kingdom) or 10 μM RO6851228 (a CB2R-selective inverse agonist; in-house synthesis) in assay medium overnight at 37°C and 5% CO2. Cells were re-treated with 10 μM SR144528 or […] for 1 h and stimulated with 233 nM RG7774 in assay medium. […] Displacement data are presented as the percentage of the maximal normalized cell index determined after antagonist/inverse agonist treatment relative to the percentage of the normalized cell index at 109 nM RG7774 treatment.

T5 sequence (O08914 whole entry): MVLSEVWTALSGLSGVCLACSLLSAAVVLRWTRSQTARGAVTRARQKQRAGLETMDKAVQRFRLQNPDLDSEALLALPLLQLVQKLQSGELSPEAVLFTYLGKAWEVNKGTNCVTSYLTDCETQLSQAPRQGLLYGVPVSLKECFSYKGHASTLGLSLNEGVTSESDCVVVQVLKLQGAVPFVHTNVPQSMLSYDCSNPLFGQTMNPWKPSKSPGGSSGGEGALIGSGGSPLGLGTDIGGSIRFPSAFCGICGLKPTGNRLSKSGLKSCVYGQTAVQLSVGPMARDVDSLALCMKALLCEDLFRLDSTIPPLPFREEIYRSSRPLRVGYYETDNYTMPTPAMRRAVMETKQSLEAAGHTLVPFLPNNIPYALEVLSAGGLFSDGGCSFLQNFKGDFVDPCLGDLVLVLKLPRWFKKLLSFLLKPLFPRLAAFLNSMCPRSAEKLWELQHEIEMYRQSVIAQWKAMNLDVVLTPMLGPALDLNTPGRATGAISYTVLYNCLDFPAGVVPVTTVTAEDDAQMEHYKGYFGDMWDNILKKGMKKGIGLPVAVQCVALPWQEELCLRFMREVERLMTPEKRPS
T1 sequence (Q99685 whole entry): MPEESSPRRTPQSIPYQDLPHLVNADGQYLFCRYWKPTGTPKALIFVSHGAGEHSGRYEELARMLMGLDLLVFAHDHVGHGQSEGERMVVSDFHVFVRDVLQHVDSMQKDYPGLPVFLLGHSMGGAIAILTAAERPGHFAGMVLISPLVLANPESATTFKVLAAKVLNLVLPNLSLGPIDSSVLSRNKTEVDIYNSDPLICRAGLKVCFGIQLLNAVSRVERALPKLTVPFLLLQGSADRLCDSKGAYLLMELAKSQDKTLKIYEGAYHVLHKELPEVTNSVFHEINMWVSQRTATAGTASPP
T4 sequence (O00519 whole entry): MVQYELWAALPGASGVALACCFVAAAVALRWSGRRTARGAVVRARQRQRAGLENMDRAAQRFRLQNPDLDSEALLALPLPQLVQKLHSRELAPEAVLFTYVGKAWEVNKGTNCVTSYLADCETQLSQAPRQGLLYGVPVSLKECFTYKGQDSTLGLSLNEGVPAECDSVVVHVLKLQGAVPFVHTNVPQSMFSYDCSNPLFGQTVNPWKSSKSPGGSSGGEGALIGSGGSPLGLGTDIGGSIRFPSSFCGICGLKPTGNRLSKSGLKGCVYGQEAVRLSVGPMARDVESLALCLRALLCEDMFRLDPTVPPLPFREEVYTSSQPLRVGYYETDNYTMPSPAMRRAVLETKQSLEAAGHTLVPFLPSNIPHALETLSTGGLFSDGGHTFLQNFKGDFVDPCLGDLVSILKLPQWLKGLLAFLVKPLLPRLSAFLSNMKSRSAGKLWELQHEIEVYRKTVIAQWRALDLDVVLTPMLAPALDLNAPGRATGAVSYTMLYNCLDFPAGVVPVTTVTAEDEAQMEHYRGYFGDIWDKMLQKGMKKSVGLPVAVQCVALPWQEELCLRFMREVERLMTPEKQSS
T3 sequence (P18054 whole entry): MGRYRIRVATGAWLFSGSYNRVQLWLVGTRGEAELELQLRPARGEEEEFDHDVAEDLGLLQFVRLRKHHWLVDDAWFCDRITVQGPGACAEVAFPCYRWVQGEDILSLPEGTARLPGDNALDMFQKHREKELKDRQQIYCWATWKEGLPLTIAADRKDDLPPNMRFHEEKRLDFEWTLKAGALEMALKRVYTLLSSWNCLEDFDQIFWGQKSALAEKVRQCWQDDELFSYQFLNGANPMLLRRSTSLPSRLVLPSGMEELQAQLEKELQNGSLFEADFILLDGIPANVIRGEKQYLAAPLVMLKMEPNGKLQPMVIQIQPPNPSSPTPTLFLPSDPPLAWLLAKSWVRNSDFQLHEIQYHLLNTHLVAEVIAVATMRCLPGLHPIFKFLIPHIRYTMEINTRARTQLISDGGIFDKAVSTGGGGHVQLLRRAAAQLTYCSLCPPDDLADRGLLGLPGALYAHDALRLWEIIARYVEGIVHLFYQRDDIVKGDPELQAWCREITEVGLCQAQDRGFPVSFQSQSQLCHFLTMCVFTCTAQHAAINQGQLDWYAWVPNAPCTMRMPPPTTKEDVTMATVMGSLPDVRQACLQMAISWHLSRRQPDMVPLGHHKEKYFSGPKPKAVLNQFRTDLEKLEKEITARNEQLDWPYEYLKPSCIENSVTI
Sequence of Mouse CB1R (P47746 whole entry): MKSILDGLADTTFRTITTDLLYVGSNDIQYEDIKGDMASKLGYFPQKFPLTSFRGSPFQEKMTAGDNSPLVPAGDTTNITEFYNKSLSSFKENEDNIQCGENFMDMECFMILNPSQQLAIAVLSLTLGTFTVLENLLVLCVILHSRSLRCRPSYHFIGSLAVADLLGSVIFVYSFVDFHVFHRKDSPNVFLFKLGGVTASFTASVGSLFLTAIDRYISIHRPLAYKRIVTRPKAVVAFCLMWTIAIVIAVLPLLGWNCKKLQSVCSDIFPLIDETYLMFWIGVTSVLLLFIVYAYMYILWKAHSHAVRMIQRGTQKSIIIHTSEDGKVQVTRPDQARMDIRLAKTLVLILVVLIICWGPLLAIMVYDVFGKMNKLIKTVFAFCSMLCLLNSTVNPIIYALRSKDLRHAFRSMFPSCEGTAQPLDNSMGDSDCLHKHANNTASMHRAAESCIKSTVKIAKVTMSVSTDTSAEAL
T2 sequence (P09917 whole entry): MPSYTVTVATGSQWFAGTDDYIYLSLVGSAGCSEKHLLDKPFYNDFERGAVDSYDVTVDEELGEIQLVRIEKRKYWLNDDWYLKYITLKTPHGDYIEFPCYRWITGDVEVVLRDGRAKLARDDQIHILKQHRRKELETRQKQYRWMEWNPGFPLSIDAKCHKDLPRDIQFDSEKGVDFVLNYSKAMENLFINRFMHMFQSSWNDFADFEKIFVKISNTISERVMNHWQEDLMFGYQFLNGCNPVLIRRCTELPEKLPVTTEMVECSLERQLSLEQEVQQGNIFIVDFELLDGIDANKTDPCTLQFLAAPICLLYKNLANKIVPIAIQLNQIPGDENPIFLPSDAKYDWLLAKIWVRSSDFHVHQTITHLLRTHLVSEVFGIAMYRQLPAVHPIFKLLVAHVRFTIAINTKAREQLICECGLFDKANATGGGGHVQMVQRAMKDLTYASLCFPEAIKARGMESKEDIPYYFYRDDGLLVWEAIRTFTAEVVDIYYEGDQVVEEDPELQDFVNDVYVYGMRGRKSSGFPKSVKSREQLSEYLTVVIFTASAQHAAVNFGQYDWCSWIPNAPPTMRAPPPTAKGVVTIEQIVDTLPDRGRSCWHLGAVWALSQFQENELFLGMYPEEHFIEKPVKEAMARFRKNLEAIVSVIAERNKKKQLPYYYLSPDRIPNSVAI

Usually inhibition stands for the share of the control response that was lost under treatment. Consider `CCCCCCC(C)(C)c1ccc([C@@H]2C[C@H](O)CC[C@H]2CCCO)c(O)c1` [CP-55940, reference compound], for which the inhibition at 0.1 µM in assay [1] stood at 91.5 ± 2.6%.
For the compound `CC(C)(C)OC(=O)N1CCN(C(=O)n2cc(-c3ccc(OC(F)(F)F)cc3)nn2)C(c2ccccc2)C1` (stereo not shown) [DO53, reference compound], the “Mean ± SEM % inhibition of control, Mouse DAGL” value in assay [2] came out at 60.4 ± 4.3%. Also, the “Mean ± SEM % inhibition of control, Human DAGL” value in assay [3] is reported as 103.1 ± 13.2%.
As for `O=C(Oc1ccc([N+](=O)[O-])cc1)N1CCC(C(O)(c2ccc3c(c2)OCO3)c2ccc3c(c2)OCO3)CC1` [JZL-184, reference compound], the “Mean ± SEM % inhibition of control, Human MAGL” value in assay [4] came out at 84.3 ± 3.4%.
In the case of `CC(Cc1ccc(O)c(O)c1)C(C)Cc1ccc(O)c(O)c1` (stereo not shown) [NDGA, reference compound], the “Mean ± SEM % inhibition of control, Human 5-LOX” value in assay [5] amounted to 126.6 ± 2.4%. Further, in assay [6], the “Mean ± SEM % inhibition of control, Human 12-LOX” value worked out at 84.6 ± 0.7%.
For `CCCCCCCC/C=C\CCCCCCCC(=O)N[C@H](CO)Cc1ccc(O)cc1` [OMDM-1, reference compound], the “Mean ± SEM % inhibition of control, Human EMT” value in [7] is listed as 95.5 ± 0.4%.
In the case of `NC(=O)c1cccc(-c2cccc(OC(=O)NC3CCCCC3)c2)c1` [URB-597, reference compound], the inhibition at 0.1 µM in assay [8] worked out at 92.8 ± 6.1%; in assay [9], 83.2 ± 4.6%.
For SR144528 [reference compound], the “inhibition of RG7774-induced increase in maximal normalized cell index” value in assay [10] is recorded as “fully inhibited”.
